Laboratory results as given in ChEMBL document CHEMBL5335843, “Application of tobramycin benzyl ether as an antibiotic adjuvant capable of sensitizing multidrug-resistant Gram-negative bacteria to rifampicin” (2024).

Tests used:
Pseudomonas aeruginosa [1] = assay: Antibacterial activity against multi-drug resistant Pseudomonas aeruginosa clinical isolate PA262 assessed as inhibition of bacterial growth incubated for 18 hrs by two fold broth microdilution assay; type: functional
Acinetobacter baumannii [2] = assay: Antibiotic adjuvant activity against multi-drug resistant Acinetobacter baumannii clinical isolate 92247 assessed as rifampicin MIC incubated for 18 hrs in presence of Rifampicin by two fold broth microdilution checkerboard assay; type: functional
Acinetobacter baumannii [3] = assay: Antibacterial activity against Acinetobacter baumannii ATCC 17978 assessed as inhibition of bacterial growth incubated for 18 hrs by two fold broth microdilution assay; type: functional
Pseudomonas aeruginosa [4] = assay: Antibiotic adjuvant activity against multi-drug resistant Pseudomonas aeruginosa clinical isolate PA262 assessed as inhibition of bacterial growth incubated for 18 hrs in presence of Rifampicin by two fold broth microdilution checkerboard assay; type: functional
Pseudomonas aeruginosa [5] = assay: Antibacterial activity against multi-drug resistant Pseudomonas aeruginosa clinical isolate 101243 assessed as inhibition of bacterial growth incubated for 18 hrs by two fold broth microdilution assay; type: functional
Pseudomonas aeruginosa [6] = assay: Antibiotic adjuvant activity against multi-drug resistant Pseudomonas aeruginosa clinical isolate PA259 assessed as rifampicin MIC incubated for 18 hrs in presence of Rifampicin by two fold broth microdilution checkerboard assay; type: functional
Escherichia coli [7] = assay: Antibiotic adjuvant activity against Escherichia coli ATCC 25922 assessed as doxycycline MIC incubated for 18 hrs in presence of doxycycline by two fold broth microdilution checkerboard assay; type: functional
Acinetobacter baumannii [8] = assay: Antibacterial activity against multi-drug resistant Acinetobacter baumannii clinical isolate 110193 assessed as inhibition of bacterial growth incubated for 18 hrs by two fold broth microdilution assay; type: functional
Pseudomonas aeruginosa [9] = assay: Antibiotic adjuvant activity against multi-drug resistant Pseudomonas aeruginosa clinical isolate PA262 assessed as rifampicin MIC incubated for 18 hrs in presence of Rifampicin by two fold broth microdilution checkerboard assay; type: functional
Acinetobacter baumannii [10] = assay: Antibiotic adjuvant activity against Acinetobacter baumannii ATCC 17978 assessed as fold potentiation incubated for 18 hrs in presence of rifampicin by two fold broth microdilution checkerboard assay relative to FBS; type: functional
Acinetobacter baumannii [11] = assay: Antibiotic adjuvant activity against Acinetobacter baumannii ATCC 17978 assessed as novobiocin MIC incubated for 18 hrs in presence of novobiocin by two fold broth microdilution checkerboard assay; type: functional
Acinetobacter baumannii [12] = assay: Antibiotic adjuvant activity against Acinetobacter baumannii ATCC 17978 assessed as fold potentiation incubated for 18 hrs in presence of Rifampicin by two fold broth microdilution checkerboard assay; type: functional
Acinetobacter baumannii [13] = assay: Antibiotic adjuvant activity against Acinetobacter baumannii ATCC 17978 assessed as fold potentiation at 8 to 16 ug/ml incubated for 18 hrs in presence of rifampicin and FBS media by two fold broth microdilution checkerboard assay; type: functional; details: dose 8-16 µg/ml
Acinetobacter baumannii [14] = assay: Antibiotic adjuvant activity against multi-drug resistant Acinetobacter baumannii clinical isolate AB031 assessed as fractional inhibitory concentration index incubated for 18 hrs in presence of Rifampicin by two fold broth microdilution checkerboard assay; type: functional
Pseudomonas aeruginosa [15] = assay: Antibiotic adjuvant activity against multi-drug resistant Pseudomonas aeruginosa clinical isolate PA262 assessed as fractional inhibitory concentration index incubated for 18 hrs in presence of doxycycline by two fold broth microdilution checkerboard assay; type: functional
Escherichia coli [16] = assay: Antibiotic adjuvant activity against multi-drug resistant Escherichia coli clinical isolate EC94474 assessed as doxycycline MIC incubated for 18 hrs in presence of doxycycline by two fold broth microdilution checkerboard assay; type: functional
Acinetobacter baumannii [17] = assay: Antibiotic adjuvant activity against Acinetobacter baumannii ATCC 17978 assessed as minocycline MIC incubated for 18 hrs in presence of minocycline by two fold broth microdilution checkerboard assay; type: functional
Escherichia coli [18] = assay: Antibiotic adjuvant activity against multi-drug resistant Escherichia coli clinical isolate EC107115 assessed as fractional inhibitory concentration index incubated for 18 hrs in presence of doxycycline by two fold broth microdilution checkerboard assay; type: functional
Escherichia coli [19] = assay: Antibiotic adjuvant activity against multi-drug resistant Escherichia coli clinical isolate EC107115 assessed as minocycline MIC incubated for 18 hrs in presence of minocycline by two fold broth microdilution checkerboard assay; type: functional
Escherichia coli [20] = assay: Antibiotic adjuvant activity against Escherichia coli ATCC 25922 assessed as fold potentiation incubated for 18 hrs in presence of rifampicin and CAMHB Mg2+ media by two fold broth microdilution checkerboard assay; type: functional
Pseudomonas aeruginosa [21] = assay: Antibiotic adjuvant activity against multi-drug resistant Pseudomonas aeruginosa clinical isolate PA262 assessed as fractional inhibitory concentration index incubated for 18 hrs in presence of minocycline by two fold broth microdilution checkerboard assay; type: functional
Pseudomonas aeruginosa [22] = assay: Antibiotic adjuvant activity against multi-drug resistant Pseudomonas aeruginosa clinical isolate PA264 assessed as fractional inhibitory concentration index incubated for 18 hrs in presence of Rifampicin by two fold broth microdilution checkerboard assay; type: functional
Enterococcus faecium [23] = assay: Antibiotic adjuvant activity against Enterococcus faecium 128149 assessed as fractional inhibitory concentration index incubated for 18 hrs in presence of rifampicin by two fold broth microdilution checkerboard assay; type: functional
Acinetobacter baumannii [24] = assay: Antibiotic adjuvant activity against Acinetobacter baumannii ATCC 17978 assessed as rifampicin MIC incubated for 18 hrs in presence of Rifampicin by two fold broth microdilution checkerboard assay; type: functional
Pseudomonas aeruginosa [25] = assay: Antibiotic adjuvant activity against multi-drug resistant Pseudomonas aeruginosa clinical isolate PA262 assessed as fractional inhibitory concentration index incubated for 18 hrs in presence of Rifampicin by two fold broth microdilution checkerboard assay; type: functional
Escherichia coli [26] = assay: Antibiotic adjuvant activity against multi-drug resistant Escherichia coli clinical isolate 94393 assessed as fractional inhibitory concentration index incubated for 18 hrs in presence of Rifampicin by two fold broth microdilution checkerboard assay; type: functional
Pseudomonas aeruginosa [27] = assay: Antibiotic adjuvant activity against multi-drug resistant Pseudomonas aeruginosa clinical isolate 101243 assessed as rifampicin MIC incubated for 18 hrs in presence of Rifampicin by two fold broth microdilution checkerboard assay; type: functional
Pseudomonas aeruginosa [28] = assay: Antibacterial activity against multi-drug resistant Pseudomonas aeruginosa clinical isolate PA259 assessed as inhibition of bacterial growth incubated for 18 hrs by two fold broth microdilution assay; type: functional
Escherichia coli [29] = assay: Antibiotic adjuvant activity against multi-drug resistant Escherichia coli clinical isolate 107115 assessed as fold potentiation incubated for 18 hrs in presence of Rifampicin by two fold broth microdilution checkerboard assay; type: functional
Enterococcus faecium [30] = assay: Antibiotic adjuvant activity against Enterococcus faecium 128149 assessed as rifampicin MIC incubated for 18 hrs in presence of rifampicin by two fold broth microdilution checkerboard assay; type: functional
Pseudomonas aeruginosa [31] = assay: Antibacterial activity against multi-drug resistant Pseudomonas aeruginosa clinical isolate PA101243 assessed as inhibition of bacterial growth incubated for 18 hrs by two fold broth microdilution assay; type: functional
Pseudomonas aeruginosa [32] = assay: Antibiotic adjuvant activity against multi-drug resistant Pseudomonas aeruginosa clinical isolate PA264 assessed as doxycycline MIC incubated for 18 hrs in presence of doxycycline by two fold broth microdilution checkerboard assay; type: functional
Escherichia coli [33] = assay: Antibiotic adjuvant activity against multi-drug resistant Escherichia coli clinical isolate EC94474 assessed as fractional inhibitory concentration index incubated for 18 hrs in presence of doxycycline by two fold broth microdilution checkerboard assay; type: functional
Pseudomonas aeruginosa [34] = assay: Antibiotic adjuvant activity against Pseudomonas aeruginosa PAO1 assessed as fold potentiation incubated for 18 hrs in presence of Rifampicin by two fold broth microdilution checkerboard assay; type: functional
Cell membrane = assay: Induction of outer membrane permeabilization in Escherichia coli ATCC 25922 assessed as increase fluorescence intensity by measuring NPN uptake factor at 4 to 8 uM by fluorescence based analysis; type: subcellular; details: dose 4-8 µM, TDE = time-dependent effect
Pseudomonas aeruginosa [35] = assay: Antibiotic adjuvant activity against multi-drug resistant Pseudomonas aeruginosa clinical isolate PA114228 assessed as minocycline MIC incubated for 18 hrs in presence of minocycline by two fold broth microdilution checkerboard assay; type: functional

Structure (SMILES): Cl.NC[C@H]1O[C@H](O[C@H]2[C@H](OCc3ccccc3)[C@@H](O[C@H]3O[C@H](COCc4ccccc4)[C@@H](OCc4ccccc4)[C@H](N)[C@H]3OCc3ccccc3)[C@H](N)C[C@@H]2N)[C@H](N)C[C@@H]1OCc1ccccc1
- MIC (Pseudomonas aeruginosa [1]): 128 µg/mL
- MIC (Acinetobacter baumannii [2]): 0.008 µg/mL
- MIC (Acinetobacter baumannii [3]): 64 µg/mL
- MIC (Pseudomonas aeruginosa [4]): 8 µg/mL
- MIC (Pseudomonas aeruginosa [5]): 64 µg/mL
- MIC (Pseudomonas aeruginosa [6]): 16 µg/mL
- MIC (Escherichia coli [7]): 0.125 µg/mL
- MIC (Acinetobacter baumannii [8]): 64 µg/mL
- MIC (Pseudomonas aeruginosa [9]): 512 µg/mL
- fold change (FC) (Acinetobacter baumannii [10]): 64
- MIC (Acinetobacter baumannii [11]): 0.5 µg/mL
- fold change (FC) (Acinetobacter baumannii [12]): 8
- fold change (FC) (Acinetobacter baumannii [13]): 4
- fractional inhibitory concentration index (FICI) (Acinetobacter baumannii [14]): 0.251
- fractional inhibitory concentration index (FICI) (Pseudomonas aeruginosa [15]): 1.063
- MIC (Escherichia coli [16]): 8 µg/mL
- MIC (Acinetobacter baumannii [17]): ≤ 4 µg/mL
- fractional inhibitory concentration index (FICI) (Escherichia coli [18]): 0.313
- MIC (Escherichia coli [19]): 1 µg/mL
- fold change (FC) (Escherichia coli [20]): 2
- fractional inhibitory concentration index (FICI) (Pseudomonas aeruginosa [21]): 1.063
- fractional inhibitory concentration index (FICI) (Pseudomonas aeruginosa [22]): 1.063
- fractional inhibitory concentration index (FICI) (Enterococcus faecium [23]): 1.5
- MIC (Acinetobacter baumannii [24]): 0.004 µg/mL
- fractional inhibitory concentration index (FICI) (Pseudomonas aeruginosa [25]): 1.063
- fractional inhibitory concentration index (FICI) (Escherichia coli [26]): 1.25
- MIC (Pseudomonas aeruginosa [27]): 0.004 µg/mL
- MIC (Pseudomonas aeruginosa [28]): 128 µg/mL
- fold change (FC) (Escherichia coli [29]): 1024
- MIC (Enterococcus faecium [30]): 8 µg/mL
- MIC (Pseudomonas aeruginosa [31]): 64 µg/mL
- MIC (Pseudomonas aeruginosa [32]): 64 µg/mL
- fractional inhibitory concentration index (FICI) (Escherichia coli [33]): 0.188
- fold change (FC) (Pseudomonas aeruginosa [34]): 8
- Activity (Cell membrane): Tde
- MIC (Pseudomonas aeruginosa [35]): 128 µg/mL
